In patent publication US9656962B2, “Ring-contracted morphinans and the use thereof” (Purdue Pharma L.P., priority 2013, dated 2017):

Biological target: μ-opioid receptor (Homo sapiens (Human), UniProt P35372)
Assay: μ-opioid receptor [35S]GTPγS functional assay, HEK-293 cells (Table 6)
Format: biochemical
Details: for Emax: relative to DAMGO; for EC50: μ GTP
Experimental: μ-Opioid Receptor Functional Assay Procedures: [^35S]GTPγS functional assays were conducted using freshly thawed μ-receptor membranes prepared in-house from a cell line expressing recombinant μ opioid receptor in a HEK-293, CHO or U-2 OS cell background, or purchased from a commercial source (Perkin Elmer, Shelton, Conn.; or DiscovRx, Fremont, Calif.). Assay reactions were prepared by sequentially adding the following reagents to binding buffer (100 mM NaCl, 10 mM MgCl2, 20 mM HEPES, pH 7.4) on ice (final concentrations indicated): membrane protein (0.026 mg/mL), saponin ([…]), GDP ([…]) and [^35S]GTPγS (0.20 nM; Perkin Elmer, Shelton, Conn.). The prepared membrane solution (190 μl/well) was transferred to 96-shallow well polypropylene plates containing 10 μl of 20× concentrated stock solutions of the agonist [D-Ala^2, N-methyl-Phe^4 Gly-ol^5]-enkephalin (DAMGO) prepared in dimethyl sulfoxide (DMSO). Plates were incubated for 30 min at about 25° C. with shaking Reactions were terminated by rapid filtration onto 96-well Unifilter GF/B filter plates (Perkin Elmer, Shelton, Conn.) using a 96-well tissue harvester (Perkin Elmer, Shelton, Conn.) followed by three filtration washes with 200 μl of ice-cold wash buffer (10 mM NaH2PO4, 10 mM Na2HPO4, pH 7.4). Filter plates were subsequently dried at 50° C. for 2-3 hours. BetaScint scintillation cocktail (Perkin Elmer, Shelton, Conn.) was added (50 μl/well) and plates were counted using a Packard Top-Count for 1 min/well. Data were analyzed using the sigmoidal dose-response curve fitting functions in GraphPad PRISM v. 3.0, or an in-house function for non-linear, sigmoidal dose-response curve-fitting. [^35S]GTPγS functional assays can also be conducted using freshly thawed μ-receptor membranes prepared from a cell line expressing recombinant μ opioid receptor in a CHO-K1 cell background.
μ GTP Emax (%) is the maximal effect elicited by a compound relative to the effect elicited by DAMGO, a standard μ agonist. Generally, the μ GTP Emax (%) value measures the efficacy of a compound to treat or prevent pain or other Conditions.
The following TABLE 6 provides results on the activity response of certain Compounds of the Invention at the μ- and κ-opioid receptors determined as described above using HEK-293 cells.

What does the source list for Cc1ccc(CNC(=O)[C@@H]2C[C@]34CCN(CC5CC5)[C@H](Cc5ccc(O)cc53)[C@]4(O)C2)cc1Cl [Compound 126, (2R,3aS,4R,9bS)-N-(3-chloro-4-methylbenzyl)-12-(cyclopropylmethyl)-3a,8-dihydroxy-1,2,3,3a,4,5-hexahydro-4,9b-(epiminoethano)cyclopenta-[a]naphthalene-2-carboxamide]?
Emax: -1%; EC50 (bound given in μM): > 20 µM

Which Emax does the source give for N#Cc1ccc2c(c1)[C@]13CCN(CC4CC4)[C@H](C2)[C@]1(O)C[C@H](C(=O)NCCN1CCOCC1)C3 [Compound 122, (2R,3aS,4R,9bS)-8-cyano-12-(cyclopropylmethyl)-3a-hydroxy-N-(2-morpholinoethyl)-1,2,3,3a,4,5-hexahydro-4,9b-(epiminoethano)cyclopenta-[a]naphthalene-2-carboxamide] here?
The Emax was 0.33 ± 0.67%.

What about the EC50 (bound given in μM) of the same compound?
Its EC50 is greater than 20 µM.

Which Emax does the source give for O=C(NCc1ccc(O)c(Cl)c1)[C@@H]1C[C@]23CCN(CC4CC4)[C@H](Cc4ccc(O)cc42)[C@]3(O)C1 [Compound 128, (2R,3aS,4R,9bS)-N-(3-chloro-4-hydroxybenzyl)-12-(cyclopropylmethyl)-3a,8-dihydroxy-1,2,3,3a,4,5-hexahydro-4,9b-(epiminoethano)cyclopenta-[a]naphthalene-2-carboxamide] here?
The Emax was -1%.

What about the EC50 (bound given in μM) of the same compound?
The EC50 was greater than 20 µM.

O=C(NCc1cc(Cl)ccc1Cl)[C@@H]1C[C@]23CCN(CC4CC4)[C@H](Cc4ccc(O)cc42)[C@]3(O)C1 [Compound 151, (2R,3aS,4R,9bS)-12-(cyclopropylmethyl)-N-(2,5-dichlorobenzyl)-3a,8-dihydroxy-1,2,3,3a,4,5-hexahydro-4,9b-(epimino-ethano)cyclopenta[a]naphthalene-2-carboxamide] was tested. Which Emax did it give?
Its Emax is -1%.

And the EC50 (bound given in μM)?
Its EC50 is greater than 20 µM.

What does the source list for O=C(NCc1cc(F)cc(F)c1)[C@H]1C[C@]23CCN(CC4CC4)[C@H](Cc4ccc(O)cc42)[C@]3(O)C1 [Compound 143, (2S,3aS,4R,9bS)-12-(cyclopropylmethyl)-N-(3,5-difluorobenzyl)-3a,8-dihydroxy-1,2,3,3a,4,5-hexahydro-4,9b-(epimino-ethano)cyclopenta[a]naphthalene-2-carboxamide]?
Emax: 39.9 ± 1.01%; EC50: 0.00209 ± 0.00045 µM

Which Emax does the source give for CN1CC[C@]23C[C@H](C(=O)NCc4ccc(Cl)cc4Cl)C[C@@]2(O)[C@H]1Cc1ccc(O)cc13 [Compound 107, (2S,3aS,4R,9bS)-N-(2,4-dichlorobenzyl)-3a,8-dihydroxy-12-methyl-1,2,3,3a,4,5-hexahydro-4,9b-(epiminoethano)cyclo-penta[a]naphthalene-2-carboxamide] here?
The Emax was 94.7 ± 0.33%.

And the EC50?
The EC50 was 0.0108 ± 0.00083 µM.

NC(=O)c1ccc2c(c1)[C@]13CCN(CC4CC4)[C@H](C2)[C@]1(O)C[C@@H](C(=O)NCCN1CCOCC1)C3 [Compound 119, (2S,3aS,4R,9bS)-12-(cyclopropylmethyl)-3a-hydroxy-N^2-(2-morpholinoethyl)-1,2,3,3a,4,5-hexahydro-4,9b-(epimino-ethano)cyclopenta[a]naphthalene-2,8-dicarboxamide] was tested. Which Emax did it give?
The Emax was 18.4 ± 1.55%.

What about the EC50 of the same compound?
The EC50 was 0.0134 ± 0.00419 µM.

What does the source list for CN1CC[C@]23C[C@@H](C(=O)NCc4ccc(Cl)c(Cl)c4)C[C@@]2(O)[C@H]1Cc1ccc(O)cc13 [Compound 99, (2R,3aS,4R,9bS)-N-(3,4-dichlorobenzyl)-3a,8-dihydroxy-12-methyl-1,2,3,3a,4,5-hexahydro-4,9b-(epiminoethano)-cyclopenta[a]naphthalene-2-carboxamide]?
Emax: 73.3 ± 1.2%; EC50: 0.244 ± 0.0295 µM

What does the source list for Cc1ccc(CNC(=O)[C@H]2C[C@]34CCN(CC5CC5)[C@H](Cc5ccc(C(N)=O)cc53)[C@]4(O)C2)cc1 [Compound 116, (2S,3aS,4R,9bS)-12-(cyclopropylmethyl)-3a-hydroxy-N^2-(4-methylbenzyl)-1,2,3,3a,4,5-hexahydro-4,9b-(epimino-ethano)cyclopenta[a]naphthalene-2,8-dicarboxamide]?
Emax: 23.6 ± 1.05%; EC50: 0.00345 ± 0.00016 µM

How did the Emax turn out when CN(C)CCN(C)C(=O)[C@@H]1C[C@]23CCN(C)[C@H](Cc4ccc(O)cc42)[C@]3(O)C1 [Compound 113, (2R,3aS,4R,9bS)-N-(2-(dimethylamino)-ethyl)-3a,8-dihydroxy-N,12-dimethyl-1,2,3,3a,4,5-hexahydro-4,9b-(epimino-ethano)cyclopenta[a]naphthalene-2-carboxamide] was run?
Its Emax is -1%.

And the EC50 (bound given in μM)?
The EC50 was greater than 20 µM.

With O=C(NCc1ccc(F)cc1F)[C@H]1C[C@]23CCN(CC4CC4)[C@H](Cc4ccc(O)cc42)[C@]3(O)C1 [Compound 146, (2S,3aS,4R,9bS)-12-(cyclopropylmethyl)-N-(2,4-difluorobenzyl)-3a,8-dihydroxy-1,2,3,3a,4,5-hexahydro-4,9b-(epimino-ethano)cyclopenta[a]naphthalene-2-carboxamide] as the compound, how does the Emax read?
The Emax was 28.3 ± 1.13%.

And the EC50?
The EC50 was 0.00222 ± 0.00041 µM.

For CN1CC[C@]23C[C@@H](C(=O)NCCc4ccccc4)C[C@@]2(O)[C@H]1Cc1ccc(O)cc13 [Compound 100, (2R,3aS,4R,9bS)-3a,8-dihydroxy-12-methyl-N-phenethyl-1,2,3,3a,4,5-hexahydro-4,9b-(epiminoethano)cyclo-penta[a]naphthalene-2-carboxamide], which Emax is on record?
Its Emax is 50.3 ± 0.33%.

And the EC50?
The EC50 was 1.1 ± 0.188 µM.

Cc1ccc(CNC(=O)[C@@H]2C[C@]34CCN(CC5CC5)[C@H](Cc5ccc(C(N)=O)cc53)[C@]4(O)C2)cc1 [Compound 117, (2R,3aS,4R,9bS)-12-(cyclopropylmethyl)-3a-hydroxy-N^2-(4-methylbenzyl)-1,2,3,3a,4,5-hexahydro-4,9b-(epimino-ethano)cyclopenta[a]naphthalene-2,8-dicarboxamide] was tested. Which Emax did it give?
The Emax was -1.21 ± 0.21%.

And the EC50 (bound given in μM)?
The EC50 was greater than 20 µM.

How did the Emax turn out when C[C@@H]1CN(CCNC(=O)[C@@H]2C[C@]34CCN(CC5CC5)[C@H](Cc5ccc(O)cc53)[C@]4(O)C2)C[C@H](C)O1 [Compound 134, (2R,3aS,4R,9bS)-12-(cyclopropylmethyl)-N-(2-((2S,6R)-2,6-dimethylmorpholino)-ethyl)-3a,8-dihydroxy-1,2,3,3a,4,5-hexahydro-4,9b-(epiminoethano)-cyclopenta[a]naphthalene-2-carboxamide] was run?
The Emax was 9.53 ± 0.9%.

What about the EC50 of the same compound?
Its EC50 is 0.092 ± 0.0197 µM.

For O=C(NCc1ccc(F)cc1F)[C@@H]1C[C@]23CCN(CC4CC4)[C@H](Cc4ccc(O)cc42)[C@]3(O)C1 [Compound 147, (2R,3aS,4R,9bS)-12-(cyclopropylmethyl)-N-(2,4-difluorobenzyl)-3a,8-dihydroxy-1,2,3,3a,4,5-hexahydro-4,9b-(epimino-ethano)cyclopenta[a]naphthalene-2-carboxamide], which Emax is on record?
Its Emax is -1%.

And the EC50 (bound given in μM)?
Its EC50 is greater than 20 µM.

For N#Cc1ccc2c(c1)[C@]13CCN(CC4CC4)[C@H](C2)[C@]1(O)C[C@@H](C(=O)NCCN1CCOCC1)C3 [Compound 123, (2S,3aS,4R,9bS)-8-cyano-12-(cyclopropylmethyl)-3a-hydroxy-N-(2-morpholinoethyl)-1,2,3,3a,4,5-hexahydro-4,9b-(epiminoethano)cyclopenta-[a]naphthalene-2-carboxamide], which Emax is on record?
Its Emax is 10.5 ± 1.07%.

What about the EC50 of the same compound?
The EC50 was 2.92 ± 0.378 µM.

For NC(=O)c1ccc2c(c1)[C@]13CCN(CC4CC4)[C@H](C2)[C@]1(O)C[C@H](C(=O)NCCN1CCOCC1)C3 [Compound 118, (2R,3aS,4R,9bS)-12-(cyclopropylmethyl)-3a-hydroxy-N^2-(2-morpholinoethyl)-1,2,3,3a,4,5-hexahydro-4,9b-(epimino-ethano)cyclopenta[a]naphthalene-2,8-dicarboxamide], which Emax is on record?
Its Emax is 13.2 ± 1.17%.

What about the EC50 of the same compound?
The EC50 was 0.175 ± 0.0099 µM.

Which Emax does the source give for O=C(NCCc1ccc(Cl)c(Cl)c1)[C@@H]1C[C@]23CCN(CC4CC4)[C@H](Cc4ccc(O)cc42)[C@]3(O)C1 [Compound 131, (2R,3aS,4R,9bS)-12-(cyclopropylmethyl)-N-(3,4-dichlorophenethyl)-3a,8-dihydroxy-1,2,3,3a,4,5-hexahydro-4,9b-(epiminoethano)cyclopenta[a]naphthalene-2-carboxamide] here?
Its Emax is 1%.

What about the EC50 (bound given in μM) of the same compound?
Its EC50 is greater than 20 µM.

What does the source list for Cc1ccc(CNC(=O)[C@@H]2C[C@]34CCN(CC5CC5)[C@H](Cc5ccc(C#N)cc53)[C@]4(O)C2)cc1 [Compound 120, (2R,3aS,4R,9bS)-8-cyano-12-(cyclopropylmethyl)-3a-hydroxy-N-(4-methylbenzyl)-1,2,3,3a,4,5-hexahydro-4,9b-(epiminoethano)cyclopenta-[a]naphthalene-2-carboxamide]?
Emax: 22.7 ± 1.92%; EC50: 0.631 ± 0.152 µM

What does the source list for CN1CC[C@]23C[C@@H](C(=O)NCc4ccc(O)cc4O)C[C@@]2(O)[C@H]1Cc1ccc(O)cc13 [Compound 98, (2R,3aS,4R,9bS)-N-(2,4-dihydroxy-benzyl)-3a,8-dihydroxy-12-methyl-1,2,3,3a,4,5-hexahydro-4,9b-(epiminoethano)cyclopenta[a]naphthalene-2-carboxamide]?
Emax: 26.7 ± 0.67%; EC50: 1.29 ± 0.223 µM
